Tests used:
[1] = Moisture sensitivity test: isothiocyanate suspended in aqueous phosphate buffer, level measured by supercritical fluid chromatography; format: physicochemical; details: white mustard essential oil suspended in aqueous phosphate buffer, pH about 3.6, about 20-23° C.
Procedure: As used herein, the term “moisture-sensitive” means that the isothiocyanate compound degrades in the presence of water. This degradation proceeds via a hydrolysis reaction, thereby leading to a reduction in level of the active isothiocyanate antimicrobial agent with time of storage in the presence of water. The method for determining moisture sensitivity is set forth in the Test Method section below. […]
These solutions are analyzed by supercritical fluid chromatography using the method described by Buskov, S. et al., “Supercritical fluid chromatography as a method of analysis for the determination of 4-hydroxybenzylglucosinolate degradation products,” Journal of Biochemical and Biophysical Methods, Vol. 43, pp 157-174 (2000) with the following modifications. […] The eluate is detected at 226 and 252 nm. […]
Moisture-sensitive isothiocyanate compounds are identified by suspending the isothiocyanate containing material in an aqueous phosphate buffer (pH of about 3.6) at room temperature. […] The extraction procedure is repeated after 24 hours and the level of residual isothiocyanate compound is measured by supercritical fluid chromatography. […]

[2] = tested on: four lactic acid spoilage bacteria (Lactobacillus fructivorans, L. fermentum, L. plantar and L. hilgardii); test: Ketchup spoilage challenge, plate counts of inoculated lactic acid bacteria; format: cell-based; details: 250 CFU/gm inoculum, stored at 22° C.
Procedure: (§1) Ketchup is an acid food with a pH of 3.5-3.8 that can be cold filled at 100±20° F. in PET bottles. The product is vulnerable during filling operation at the filler, susceptible for recontamination by adventitious spoilage microorganisms such as lactic acid bacteria (LAB) and acid and preservative tolerant yeasts (APRY).
(§2) All natural tomato ketchup products were made, a first sample with sodium (ANK) and a second sample with reduced sodium (ANK-RS). Each sample was split, and to each about 150 ppm and 300 ppm 4-hydroxybenzyl isothiocyanate was added. The samples were further split (for a total of eight samples) and inoculated as follows. Microorganisms were inoculated into four samples with a cocktail consisting of four separate lactic acid spoilage bacteria (250 CFU/gm) such as Lactobacillus fructivorans, L. fermentum, L. plantar and L. hilgardii. The four remaining samples were inoculated with Zygosaccharomyces bailii—(150-200 CFU/gm) previously isolated from a ketchup spoilage incident.
(§3) A summary of the samples is as follows: • 1: ANK—150 ppm 4HBITC—inoculated with four lactic acid bacteria • 2: ANK—150 ppm 4HBITC—inoculated with Z. bailii • 3: ANK—300 ppm 4HBITC—inoculated with four lactic acid bacteria • 4: ANK—300 ppm 4HBITC—inoculated with Z. bailii • 5: ANK-RS—150 ppm 4HBITC—inoculated with four lactic acid bacteria • 6: ANK-RS—150 ppm 4HBITC—inoculated with Z. bailii • 7: ANK-RS—300 ppm 4HBITC—inoculated with four lactic acid bacteria • 8: ANK-RS—300 ppm 4HBITC—inoculated with Z. bailii
(§4) The inoculated ketchup samples were stored at 22° C. […] The lactic acid bacteria and yeasts counts were performed as described in FDA BAM manual. The plate counts were then used to identify the degree of microbial kill or stasis in the inoculated product. […] At 150 ppm, the declining trend was gradual taking 336 hours to non-detectable level for both ANK and ANK-RS. Un-inoculated controls grew to level of 1000-1500 CFU/gm. In the Z. bailii inoculated samples, counts were reduced to non-detectable level at 96 hours, both with and without 4-hydroxybenzyl isothiocyanate. However, there was no regrowth in the samples with 4-hydroxybenzyl isothiocyanate up to 336 hours (150 and 300 ppm). Regrowth was noticed around 96-108 hours ending at 1×10^6 CFU/gm in control samples without 4-hydroxybenzyl isothiocyanate.

[3] = tested on: Zygosaccharomyces bailii; test: Ketchup spoilage challenge, plate counts of inoculated yeast; format: cell-based; details: 22° C.; for regrowth of Z. bailii up to 336 hours: controls regrew around 96-108 hours
Procedure: as §1, §2, §3
as §4, with “However, there was no regrowth in the samples with 4-hydroxybenzyl isothiocyanate up to 336 hours (150 and 300 ppm). Regrowth was noticed around 96-108 hours ending at 1×10^6 CFU/gm in control samples without 4-hydroxybenzyl isothiocyanate.” left out

Oc1ccc(CN=C=S)cc1 [4-hydroxybenzyl isothiocyanate]
percent reduction in level of 4-hydroxybenzyl isothiocyanate after 24 hours [1]: about 72%
time until lactic acid bacteria counts reduced to non-detectable level ([2]; ANK ketchup, 150 ppm): 336 h
time until lactic acid bacteria counts reduced to non-detectable level ([2]; ANK ketchup, 300 ppm): ≤ 96 h
time until lactic acid bacteria counts reduced to non-detectable level ([2]; ANK-RS (reduced sodium) ketchup, 150 ppm): 336 h
time until lactic acid bacteria counts reduced to non-detectable level ([2]; ANK-RS (reduced sodium) ketchup, 300 ppm): ≤ 168 h
time at which Z. bailii counts reduced to non-detectable level ([3]; 150-200 CFU/gm inoculum, same result with and without 4-hydroxybenzyl isothiocyanate): 96 h
regrowth of Z. bailii up to 336 hours ([3]; 150 ppm): no regrowth
regrowth of Z. bailii up to 336 hours ([3]; 300 ppm): no regrowth
